Measured values reported in patent US6320024A, “Method for design of substances that enhance memory and improve the quality of life” (priority 1999, dated 2001).
Ends that are not written are not given here. Peptide text beside a SMILES is read from it.

Legend:
[1] = test system: CD-1 male mice; assay: Amnestic effect on retention of footshock active avoidance training (FAAT) in T-maze, well-trained mice, post-training ICV administration; assay type: in vivo; conditions: for amnestic effect on retention of FAAT: well-trained mice, post-training ICV, 6.14 nmol of peptide per mouse except dose-response curves, retention tested one week later; for molar amnestic efficacy / potency compared with another peptide: dose-response curves or FIG. 19
Description: (§1) After 1 week in the laboratory, CD-1 male mice obtained from Charles River Breeding Laboratories were caged individually 24-28 hours prior to training and remained singly housed until retention was tested one week later. Animal rooms were on a 12 hour light/dark cycle with lights going on at the hour of 0600. Median body weight was 35 g, with a range of 33-38 g. Mice were assigned randomly to groups of 15 in the experiments reported in FIGS. 1-18 and groups of 10 for the dose-response curves (FIGS. 19 and 20) and were trained and tested between the hours of 0700 and 1500.
(§2) With the exception of Val Phe and Phe Val from Sigma, all peptides used in these studies were synthesized and analyzed to establish purity by standard methods at the Beckman Research Institute. Peptides were dissolved in: (1) saline; (2) 8% vol/vol dimethyl sulfoxide: (3) glacial acetic acid neutralized with […]; or (4) NaOH neutralized with HCl.
With exception of dose-response curves, the experiments reported below tested whether or not there was an amnestic: effect at 6.14 nmol of peptide per mouse.
The T-maze used for footshock active avoidance training (FAAT) consisted of a black plastic alley (46 cm long) with a start box at one end and two goal boxes (17.5 cm long) at the other. The start box was separated from the alley by a plastic guillotine door that prevented movement down the alley until training began. The alley was 12.5 cm deep and 9.8 cm wide. An electrifiable stainless steel rod floor ran throughout the maze.
Mice were not permitted to explore the maze before training. A block of training trials began when a mouse was placed in the start box. The guillotine door was raised and a muffled doorbell-type buzzer sounded simultaneously; footshock was 5 seconds later through a scrambled grid floor shocker (Colbourn Instruments, Model E13-08). The goal box first entered during the first set of trials was designated as "incorrect", and footshock was continued until the mouse entered the other goal box, which in all subsequent trials was designated "correct" for the particular mouse. At the end of each group of trials, the mouse was removed to its home cage.
As training proceeded, a mouse made one of two types of responses. A response latency longer than 5 seconds was classed as an escape from the footshock. A response latency less than or equal to 5 seconds was considered an avoidance, since the mouse avoided receiving a footshock. Two exclusion criteria were applied to reduce learning variability among mice, as follows. On the first training trials, mice with escape latencies greater than 20 seconds were discarded. Mice not having at least one errorless escape latency between 1.5 and 3.5 seconds on training trials 3 or 4 were excluded. […] Mice received five such training trials. One week after training and post-trial administration of vehicle alone or vehicle containing test substance, T-maze training was resumed until each mouse made five avoidance responses in six consecutive training trials (trials to criterion). The recall score was taken to be the percentage of tested mice remembering original training.
In these instances, training was performed under conditions that tend to maximize learning (sound intensity, 65 decibels; footshock current, 0.35 mA; intertrial interval, 45 seconds).

[2] = test system: CD-1 male mice; assay: Memory-enhancing effect on retention of FAAT in T-maze, weakly trained mice (poor retention in vehicle controls), post-training ICV administration; assay type: in vivo
Description: as §1
as §2, with “HCl. […] Analysis of variance showing insignificant differences among the latter, the value for the most frequently employed (No. 2 above) was used for comparison with groups receiving test peptides.” for “HCl.”
The T-maze used for footshock active avoidance training (FAAT) consisted of a black plastic alley (46 cm long) with a start box at one end and two goal boxes (17.5 cm long) at the other. […]

[3] = test system: CD-1 male mice; conditions: cited from earlier work; for amnestic effect on retention of FAAT (literature): post-training ICV in mice, references 1 and 12
[4] = test system: hippocampal neurons in culture; conditions: reference 17; cited from earlier work

NC(=O)CC[C@H](N)C(=O)N[C@@H](Cc1ccccc1)C(=O)N[C@@H](Cc1ccccc1)C(=O)NCC(=O)O [Gln Phe Phe Gly] (H-QFFG-OH)
amnestic effect on retention of FAAT [1]: amnestic
memory-enhancing potency compared with other peptides ([2]; poor retention in vehicle controls): by far the most potent

CC(C)[C@H](N)C(=O)N[C@@H](Cc1ccccc1)C(=O)N[C@@H](Cc1ccccc1)C(=O)O [Val Phe Phe] (H-Val-Phe-Phe-OH)
molar amnestic efficacy / potency compared with another peptide [1]: not significantly different from that of the β-A4 homologue
amnestic effect on retention of FAAT [1]: amnestic
memory-enhancing effect ([2]; weakly trained animals, ICV): memory enhancer

CC(C)[C@H](N)C(=O)N[C@@H](Cc1ccccc1)C(=O)N[C@H](C(=O)O)[C@@H](C)O [Val Phe Thr] (H-Val-Phe-Thr-OH)
amnestic effect on retention of FAAT [1]: amnestic

His Ser Asp Ala Val Phe Thr Asp Asn Tyr Thr Arg Leu Lys Gln Met Ala Val Lys Lys Tyr Leu Asn Ser Ile Leu Asn-NH2 (HSDAVFTDNYTRLKQMAVKKYLNSILN-NH2) [VIP]
amnestic effect on retention of FAAT (literature) [3]: amnestic

KLVFFAE [Lys Leu Val Phe Phe Ala Glu]
amnestic effect on retention of FAAT [1]: not amnestic

Pro Arg Pro Gly Pro Gln Gln Phe Phe Gly Leu Met-NH2 (PRPGPQQFFGLM-NH2) [Substance Pro]
effect on trophic and toxic effects of β-A4 [4]: counteract trophic and toxic effects of β-A4

VFFAE [Val Phe Phe Ala Glu]
molar amnestic efficacy / potency compared with another peptide [1]: lesser potency
amnestic effect on retention of FAAT [1]: amnestic

VFFAEDVGSNK [β-(18-28)]
amnestic effect on retention of FAAT (literature) [3]: amnestic

β-(1-18): β-A4 fragment of reference 1, probably misprint of β-(1-28)
amnestic activity at lower dose (literature) ([3]; 1.5 nmol per mouse, reference 1): active
